The values below are quoted from earlier work in patent publication US20150080385A1, “OPHTHALMIC PHARMACEUTICAL COMPOSITION CONTAINING A CARBONIC ANHYDRASE INHIBITOR AND METHOD FOR THE PREPARATION THEREOF” (PHARMATHEN S.A., priority 2012, published 2015).

On to `CCN[C@H]1CN(CCCOC)S(=O)(=O)c2sc(S(N)(=O)=O)cc21` [Brinzolamide, (R)-4-ethylamino-3,4-dihydro-2-(3-methoxy) propyl-2H-thieno[3,2-e]-1,2-thiazine-6-sulfonamide 1, 1 dioxide], for which the “Solubility in alcohol and methanol” value (alcohol and methanol) is on record as “slightly soluble”. The Solubility in water entry (water) is “insoluble”.
